Test results reported in US10995359B2, “Method for determining drug-sensitive human cell lines by analysis method in which measurement of activity of two types of protein kinase is used” (NITTO BOSEKI CO., LTD., priority 2015, dated 2021).
Read-outs that look alike come from different tables or passages of the source.

Tests used:
SUM185PE derived tumor = assay: Test of suppressing tumor growth by drug administration using tumor-bearing mice; assay type: in vivo, nude mice; conditions: 0.3 mg/kg orally once-daily for 14 days
Method: (§1) A cultured triple negative breast cancer cell line was injected under the skin of nude mice to create cancer-bearing mice, and a tumor tissue was established and a PI3K inhibitor and an MEK inhibitor were then administered. Tumor volumes were measured to observe an anti-tumor effect. The method for preparing a tumor-bearing mice and the administration route are as follows.
(§2) The cell lines of MDA-MB-231, HCC70 and SUM185PE were cultured by the above-described method, and after release with trypsin, the cells was suspended with Matrigel basement membrane matrix (manufactured by Corning Incorporated) to about 7×10^6 cells/mL to prepare a cell suspension. Using a 27 gauge syringe, 0.1 mL of cell suspension was injected under the skin of 5-week old female nude mice (manufactured by CLEA Japan, Inc.) to prepare tumor-bearing mice.
(§3) Trametinib, an MEK inhibitor, and wortmannin, a PI3K inhibitor, were each dissolved in PBS with 1% dimethylsulfoxide (DMSO) to 0.3 mg/kg to obtain a drug solution. In addition, PBS with 1% DMSO was used as a control.
(§4) Individuals whose tumor volume reached 300 mm^3 were randomly divided into 3 groups and administration was initiated. As an administration route, a drug solution was orally administered once-daily for 14 days and the tumor volume was observed. The tumor volume was calculated by major axis×(minor axis)^2/2.
(§5) FIGS. 33 to 35 show the results of the test of suppressing tumor growth by each inhibitor using the number of individuals N=6 in each group (Control group, Trametinib-administered group and Wortmannin-administered group) (FIG. 33: MDA-MB-231 derived tumor-bearing mice, FIG. 34: HCC70 derived tumor-bearing mice, and FIG. 35: SUM185PE derived tumor-bearing mice). […] Mann-Whitney U test was used as the test method.

HCC70 derived tumor = assay: as above; assay type: in vivo, nude mice; conditions: 0.3 mg/kg orally once-daily for 14 days
Method: as §1, §2, §3, §4, §5

MDA-MB-231 derived tumor = assay: as above; assay type: in vivo, nude mice; conditions: MDA-MB-231 derived tumor-bearing mice; 0.3 mg/kg orally once-daily for 14 days
Method: as §1, §2, §3, §4, §5

HCC1143 (BL1) cells = assay: Drug sensitivity assay (cell growth test), sulforhodamine B; assay type: cell-based; conditions: Homo sapiens, 72 hours; for inhibition at 0.1 µM: HCC1143, 100 nM, index 12.5% growth inhibition rate; for inhibition at 1 µM: HCC1143, 1 μM, index 25% growth inhibition rate; for inhibition at 10 µM: HCC1143, 10 μM, index 50% growth inhibition rate
Method: (§6) Cultured cells were treated with a MEK inhibitor and a PI3K inhibitor in various concentrations, and cell lines sensitive to MEK and PI3K were classified by calculating a cell growth inhibition rate. The culture method and analysis method are as follows.
(§7) Thirteen types of cells used in the present study, HCC38 (BL1), MDA-MB-231 (MSL), DU4475 (IM), HCC1187 (IM), HCC1143 (BL1), HCC1395 (LAR), HCC1937 (BL1), MDA-MB-453 (LAR), HCC70 (BL2), HS578T (MSL), MDA-MB-157 (MSL) and MDA-MB-468 (BL1), were obtained from American type culture collection (ATCC), and SUM185PE (LAR) was obtained from ASTERAND BIOSCIENCE. All the cells belong to triple negative breast cancer (TNBC), and it is known which of six types (BL1, BL2, M, MSL, IM and LAR) these belong to by an existing classification method.
(§8) All the cells were cultured in a medium designated from a source of supply, and 2 mM L-glutamine and 10% fetal bovine serum (FBS) were supplemented.
(§9) Each type of cells was seeded in a 96 well titer plate at 1×10^4 cells/well, and trametinib, an MEK inhibitor (Medchem Express; 0.08, 0.16, 0.31, 0.63, 1.25, 2.5, 5, 10 and 20 μM), and wortmannin, a PI3K inhibitor (Wako Pure Chemical Industries, Ltd.; 0.08, 0.16, 0.31, 0.63, 1.25, 2.5, 5, 10 and 20 μM) were dissolved in Dimethyl Sulfoxide [DMSO] (Wako Pure Chemical Industries, Ltd.) in various concentrations and treated. In addition, the effect on cell growth was examined at 72 hours after the inhibitor by sulforhodamine B assay (manufactured by SIGMA-ALDRICH), and 50 μL of sulforhodamine B solution was added to each well and cells were left at room temperature for an hour for staining. The staining degree of metabolically survival cells was examined by monitoring absorbance at a wavelength of 565 nm using a microtiter plate. The absorbance of cells which were not treated with trametinib and wortmannin (treated with DMSO) was used as a control and defined as 100% to calculate a cell growth inhibition rate.
(§10) The cell lines were classified into 4 types, cell lines sensitive to wortmannin (hereinafter, PA), cell lines sensitive to trametinib (hereinafter, MA), cell lines resistant to wortmannin and trametinib (hereinafter, R), and others (hereinafter, S). In the classification, first the inhibition rate of each drug was calculated in a concentration of 1 μM, and the inhibition rate (%) by trametinib and the inhibition rate (%) by wortmannin were plotted on the X axis and Y axis respectively on a graph.
as §10, with “100 nM,” for “1 μM,”
as §10, with “10” for “1”, “graph. Using a 50% growth inhibition rate as an index of the inhibitive effect of a drug, cells were classified into 4 types by grid analysis.” for “graph.”

MDA-MB-157 (MSL) cells = assay: as above; assay type: cell-based; conditions: Homo sapiens, 72 hours; for inhibition at 0.1 µM: MDA-MB-157, 100 nM, index 12.5% growth inhibition rate; for inhibition at 1 µM: MDA-MB-157, 1 μM, index 25% growth inhibition rate; for inhibition at 10 µM: MDA-MB-157, 10 μM, index 50% growth inhibition rate
Method: as §6, §7, §8, §9, §10
as §10, with “100 nM,” for “1 μM,”
as §10, with “10” for “1”, “graph. Using a 50% growth inhibition rate as an index of the inhibitive effect of a drug, cells were classified into 4 types by grid analysis.” for “graph.”

SUM185PE (LAR) cells = assay: as above; assay type: cell-based; conditions: Homo sapiens, 72 hours; for inhibition at 0.1 µM: 100 nM, index 12.5% growth inhibition rate; for inhibition at 1 µM: index 25% growth inhibition rate; for inhibition at 10 µM: index 50% growth inhibition rate
Method: as §6, §7, §8, §9, §10
as §10, with “100 nM,” for “1 μM,”
as §10, with “10” for “1”, “graph. Using a 50% growth inhibition rate as an index of the inhibitive effect of a drug, cells were classified into 4 types by grid analysis.” for “graph.”

HCC1937 (BL1) cells = assay: as above; assay type: cell-based; conditions: Homo sapiens, 72 hours; for inhibition at 0.1 µM: HCC1937, 100 nM, index 12.5% growth inhibition rate; for inhibition at 1 µM: HCC1937, 1 μM, index 25% growth inhibition rate; for inhibition at 10 µM: HCC1937, 10 μM, index 50% growth inhibition rate
Method: as §6, §7, §8, §9, §10
as §10, with “100 nM,” for “1 μM,”
as §10, with “10” for “1”, “graph. Using a 50% growth inhibition rate as an index of the inhibitive effect of a drug, cells were classified into 4 types by grid analysis.” for “graph.”

[1] = read-out: inhibition rate (%) by wortmannin, classification by grid analysis
[2] = read-out: inhibition rate (%) by trametinib, classification by grid analysis

COC[C@H]1OC(=O)c2coc3c2[C@@]1(C)C1=C(C3=O)[C@@H]2CCC(=O)[C@@]2(C)C[C@H]1OC(C)=O [wortmannin, Wortmannin]
suppression of tumor growth (in words) (SUM185PE derived tumor): significantly suppressed
suppression of tumor growth (in words) (HCC70 derived tumor): a significant growth suppressive effect was observed
suppression of tumor growth (in words) (MDA-MB-231 derived tumor): a significant suppressive effect was not obtained
inhibition at 0.1 µM (HCC1143 (BL1) cells; [1]): < 12.5%
inhibition at 1 µM (HCC1143 (BL1) cells; [1]): < 25%
inhibition at 10 µM (HCC1143 (BL1) cells; [1]): < 50%
inhibition at 0.1 µM (MDA-MB-157 (MSL) cells; [1]): < 12.5%
inhibition at 1 µM (MDA-MB-157 (MSL) cells; [1]): < 25%
inhibition at 10 µM (MDA-MB-157 (MSL) cells; [1]): < 50%
inhibition at 0.1 µM (SUM185PE (LAR) cells; [1]): > 12.5%
inhibition at 1 µM (SUM185PE (LAR) cells; [1]): > 25%
inhibition at 10 µM (SUM185PE (LAR) cells; [1]): > 50%
inhibition at 0.1 µM (HCC1937 (BL1) cells; [1]): < 12.5%
inhibition at 1 µM (HCC1937 (BL1) cells; [1]): < 25%
inhibition at 10 µM (HCC1937 (BL1) cells; [1]): < 50%

CC(=O)Nc1cccc(-n2c(=O)n(C3CC3)c(=O)c3c(Nc4ccc(I)cc4F)n(C)c(=O)c(C)c32)c1 [trametinib]
suppression of tumor growth (in words) (SUM185PE derived tumor): a significant growth suppressive effect was not obtained
suppression of tumor growth (in words) (HCC70 derived tumor): a significant growth suppressive effect was observed
suppression of tumor growth (in words) (MDA-MB-231 derived tumor): significantly suppressed
inhibition at 0.1 µM (HCC1143 (BL1) cells; [2]): > 12.5%
inhibition at 1 µM (HCC1143 (BL1) cells; [2]): > 25%
inhibition at 10 µM (HCC1143 (BL1) cells; [2]): > 50%
inhibition at 0.1 µM (MDA-MB-157 (MSL) cells; [2]): < 12.5%
inhibition at 1 µM (MDA-MB-157 (MSL) cells; [2]): < 25%
inhibition at 10 µM (MDA-MB-157 (MSL) cells; [2]): < 50%
inhibition at 0.1 µM (SUM185PE (LAR) cells; [2]): < 12.5%
inhibition at 1 µM (SUM185PE (LAR) cells; [2]): < 25%
inhibition at 10 µM (SUM185PE (LAR) cells; [2]): < 50%
inhibition at 0.1 µM (HCC1937 (BL1) cells; [2]): < 12.5%
inhibition at 1 µM (HCC1937 (BL1) cells; [2]): < 25%
inhibition at 10 µM (HCC1937 (BL1) cells; [2]): < 50%
